Laboratory results published in patent US8247211B2, “Glycopeptide antibiotics” (American Cyanamid Company, priority 2001, dated 2012).
Converted amounts (≈) assume the structure as drawn.

Columns and labels:
Assay in all cases: In vitro antibacterial evaluation: minimum inhibitory concentration (MIC), broth dilution method
Assay type in all cases: cell-based
[1] = tested on: Streptococcus sp.
Outline: (§1)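 First, organisms are seeded at 5×10^5 CFU/mL into Muller-Hinton II […]. Next, antibiotic is applied across 64-0.06 μg/mL by broth dilution (NCCLS M7-A2). Finally, the lowest inhibitory concentration is recorded as MIC.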

[2] = tested on: Staphylococcus sp.; conditions: broth dilution, 18 hours at 35° C.
Outline: as §1

[3] = tested on: Enterococcus sp.
Outline: as §1

[4] = tested on: Escherichia coli
Outline: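 An MIC is reported for each organism as the least concentration giving inhibition, using broth dilution over 64-0.06 μg/mL with a 5×10^5 CFU/mL inoculum.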

[5] = broth dilution, inoculum 5×10^5 CFU/mL, 18 hours at 35° C.

MIC Streptococcus agalactiae (GC 4564) [1, 5]: 1 µg/mL (≈ 0.681 µM) | MIC Streptococcus pneumoniae (ATCC 6301) [1, 5]: 0.12 µg/mL (≈ 0.0818 µM) | MIC Streptococcus pneumoniae (GC 1894) [1, 5]: <0.06 µg/mL | MIC Streptococcus pneumoniae (GC 4565) [1, 5]: 0.12 µg/mL (≈ 0.0818 µM) | MIC Streptococcus pyogenes (GC 4563) [1, 5]: 0.12 µg/mL (≈ 0.0818 µM) | MIC Streptococcus pneumoniae (ATCC 6301) ([1]; strain ATCC 6301): 0.12 µg/mL (≈ 0.0818 µM) | MIC Streptococcus pneumoniae (GC 1894) ([1]; strain GC 1894): <0.06 µg/mL | MIC Streptococcus pyogenes (GC 4563) ([1]; strain GC 4563): 0.12 µg/mL (≈ 0.0818 µM) | MIC Streptococcus agalactiae (GC 4564) ([1]; strain GC 4564): 1 µg/mL (≈ 0.681 µM) | MIC Streptococcus pneumoniae (GC 4565) ([1]; strain GC 4565): 0.12 µg/mL (≈ 0.0818 µM) | MIC Coagulase Negative Staphylococcus (GC 4547) ([2]; 5×10^5 CFU/mL): 16 µg/mL (≈ 10.9 µM) | MIC Coagulase Negative Staphylococcus (GC 4548) ([2]; 5×10^5 CFU/mL): 8 µg/mL (≈ 5.45 µM) | MIC Coagulase Negative Staphylococcus (GC 4549) ([2]; 5×10^5 CFU/mL): 8 µg/mL (≈ 5.45 µM) | MIC Coagulase Negative Staphylococcus (GC 4551) ([2]; 5×10^5 CFU/mL): 16 µg/mL (≈ 10.9 µM) | MIC Coagulase Negative Staphylococcus (GC 6257) ([2]; 5×10^5 CFU/mL): 8 µg/mL (≈ 5.45 µM) | MIC Staphylococcus aureus (ATCC 29213) ([2]; 5×10^5 CFU/mL): 16 µg/mL (≈ 10.9 µM) | MIC Staphylococcus aureus (GC 1131) ([2]; 5×10^5 CFU/mL): 16 µg/mL (≈ 10.9 µM) | MIC Staphylococcus aureus (GC 3051) ([2]; 5×10^5 CFU/mL): 32 µg/mL (≈ 21.8 µM) | MIC Staphylococcus aureus (GC 3053) ([2]; 5×10^5 CFU/mL): 16 µg/mL (≈ 10.9 µM) | MIC Staphylococcus aureus (GC 4541) ([2]; 5×10^5 CFU/mL): 16 µg/mL (≈ 10.9 µM) | MIC Staphylococcus aureus (GC 4542) ([2]; 5×10^5 CFU/mL): 16 µg/mL (≈ 10.9 µM) | MIC Staphylococcus aureus (GC 4544) ([2]; 5×10^5 CFU/mL): 16 µg/mL (≈ 10.9 µM) | MIC Staphylococcus aureus (GC 4545) ([2]; 5×10^5 CFU/mL): 16 µg/mL (≈ 10.9 µM) | MIC Staphylococcus aureus-SMITH (GC 4543) ([2]; 5×10^5 CFU/mL): 16 µg/mL (≈ 10.9 µM) | MIC Staphylococcus aureus (ATCC 29213) ([2]; strain ATCC 29213): 16 µg/mL (≈ 10.9 µM) | MIC Staphylococcus aureus (GC 1131) ([2]; strain GC 1131): 16 µg/mL (≈ 10.9 µM) | MIC Staphylococcus aureus (GC 3051) ([2]; strain GC 3051): 32 µg/mL (≈ 21.8 µM) | MIC Staphylococcus aureus (GC 3053) ([2]; strain GC 3053): 16 µg/mL (≈ 10.9 µM) | MIC Staphylococcus aureus (GC 4541) ([2]; strain GC 4541): 16 µg/mL (≈ 10.9 µM) | MIC Staphylococcus aureus (GC 4542) ([2]; strain GC 4542): 16 µg/mL (≈ 10.9 µM) | MIC Staphylococcus aureus-SMITH (GC 4543) ([2]; strain GC 4543): 16 µg/mL (≈ 10.9 µM) | MIC Staphylococcus aureus (GC 4544) ([2]; strain GC 4544): 16 µg/mL (≈ 10.9 µM) | MIC Staphylococcus aureus (GC 4545) ([2]; strain GC 4545): 16 µg/mL (≈ 10.9 µM) | MIC Coagulase Negative Staphylococcus (GC 4547) ([2]; strain GC 4547): 16 µg/mL (≈ 10.9 µM) | MIC Coagulase Negative Staphylococcus (GC 4548) ([2]; strain GC 4548): 8 µg/mL (≈ 5.45 µM) | MIC Coagulase Negative Staphylococcus (GC 4549) ([2]; strain GC 4549): 8 µg/mL (≈ 5.45 µM) | MIC Coagulase Negative Staphylococcus (GC 4551) ([2]; strain GC 4551): 16 µg/mL (≈ 10.9 µM) | MIC Coagulase Negative Staphylococcus (GC 6257) ([2]; strain GC 6257): 8 µg/mL (≈ 5.45 µM) | MIC Enterococcus avium (GC 4558) [3, 5]: 16 µg/mL (≈ 10.9 µM) | MIC Enterococcus faecalis (ATCC 29212) [3, 5]: 16 µg/mL (≈ 10.9 µM) | MIC Enterococcus faecalis (GC 2242) [3, 5]: 16 µg/mL (≈ 10.9 µM) | MIC Enterococcus faecalis (GC 2691) [3, 5]: 16 µg/mL (≈ 10.9 µM) | MIC Enterococcus faecalis (GC 3059) [3, 5]: 16 µg/mL (≈ 10.9 µM) | MIC Enterococcus faecalis (GC 4552) [3, 5]: 16 µg/mL (≈ 10.9 µM) | MIC Enterococcus faecalis (GC 4553) [3, 5]: 16 µg/mL (≈ 10.9 µM) | MIC Enterococcus faecalis (GC 4554) [3, 5]: 32 µg/mL (≈ 21.8 µM) | MIC Enterococcus faecalis (GC 6189) [3, 5]: 16 µg/mL (≈ 10.9 µM) | MIC Enterococcus faecium (GC 2243) [3, 5]: 16 µg/mL (≈ 10.9 µM) | MIC Enterococcus faecium (GC 4556) [3, 5]: 16 µg/mL (≈ 10.9 µM) | MIC Enterococcus faecium (GC 4557) [3, 5]: 16 µg/mL (≈ 10.9 µM) | MIC Enterococcus faecalis (ATCC 29212) ([3]; strain ATCC 29212): 16 µg/mL (≈ 10.9 µM) | MIC Enterococcus faecalis (GC 2242) ([3]; strain GC 2242): 16 µg/mL (≈ 10.9 µM) | MIC Enterococcus faecium (GC 2243) ([3]; strain GC 2243): 16 µg/mL (≈ 10.9 µM) | MIC Enterococcus faecalis (GC 2691) ([3]; strain GC 2691): 16 µg/mL (≈ 10.9 µM) | MIC Enterococcus faecalis (GC 3059) ([3]; strain GC 3059): 16 µg/mL (≈ 10.9 µM) | MIC Enterococcus faecalis (GC 4552) ([3]; strain GC 4552): 16 µg/mL (≈ 10.9 µM) | MIC Enterococcus faecalis (GC 4553) ([3]; strain GC 4553): 16 µg/mL (≈ 10.9 µM) | MIC Enterococcus faecalis (GC 4554) ([3]; strain GC 4554): 32 µg/mL (≈ 21.8 µM) | MIC Enterococcus faecium (GC 4556) ([3]; strain GC 4556): 16 µg/mL (≈ 10.9 µM) | MIC Enterococcus faecium (GC 4557) ([3]; strain GC 4557): 16 µg/mL (≈ 10.9 µM) | MIC Enterococcus avium (GC 4558) ([3]; strain GC 4558): 16 µg/mL (≈ 10.9 µM) | MIC Enterococcus faecalis (GC 6189) ([3]; strain GC 6189): 16 µg/mL (≈ 10.9 µM) | MIC Escherichia coli (ATCC 25922) ([4]; strain ATCC 25922): >64 µg/mL | MIC Escherichia coli (GC 4559) ([4]; strain GC 4559): >64 µg/mL | MIC Escherichi coli (GC 4560) ([4]; strain GC 4560): 16 µg/mL (≈ 10.9 µM)
Compound: CC(C)=CCOc1cccc(C2OCC3OC(OC4C(CO)OC(Oc5ccc(CC6NC(=O)C(C(C)c7ccccc7)NC(=O)CNC(=O)C(CO)NC(=O)C(C(O)C7CNC(=N)N7C7OC(CO)C(O)C(O)C7O)NC(=O)C(C(O)C7CNC(=N)N7)NC6=O)cc5)C(O)C4O)C(O)C(O)C3O2)c1 (stereo not shown) [Example 165]
MIC Staphylococcus haemolyticus (GC 4546) ([2]; 5×10^5 CFU/mL): 16 µg/mL (≈ 10.9 µM) | MIC Staphylococcus haemolyticus (GC 4546) ([2]; strain GC 4546): 16 µg/mL (≈ 10.9 µM)
